Assay results published in US6737383B1, “Herbicidal oxadiazolidines” (priority 1999, dated 2004).

Tests used:
[1] = test system: corn; test: Test B pre/postemergence corn; format: in vivo, Zea mays
Method in brief: (§1)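 Response is a visual 0-to-10 score relative to untreated plants, where 0 means no effect and 10 means complete control, taken twelve to sixteen days after application. Treatments went onto soil at planting and onto foliage of 1- to 4-leaf plants, using a surfactant-containing non-phytotoxic solvent.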

[2] = test system: soybean; test: Test B pre/postemergence soybean; format: in vivo, Glycine max
Method in brief: as §1

[3] = test system: wheat; test: Test B pre/postemergence wheat; format: in vivo, Triticum aestivum
Method in brief: as §1

[4] = test system: duck salad; test: Test B flood test duck salad; format: in vivo, Heteranthera limosa
Method in brief: (§2)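 Each value is a visual injury score relative to controls, with 10 meaning complete control and 0 no effect. Evaluation took place twelve to sixteen days after the 2-leaf-stage plants were treated and kept in the greenhouse.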

[5] = test system: rape; test: Test B pre/postemergence rape; format: in vivo, Brassica napus
Method in brief: as §1

[6] = test system: morningglory; test: Test B pre/postemergence morningglory; format: in vivo, Ipomoea hederacea
Method in brief: as §1

[7] = test system: velvetleaf; test: Test B pre/postemergence velvetleaf; format: in vivo, Abutilon theophrasti
Method in brief: as §1

[8] = test system: surinam grass; test: Test B pre/postemergence surinam grass; format: in vivo, Brachiaria decumbens
Method in brief: as §1

[9] = test system: blackgrass; test: Test B pre/postemergence blackgrass; format: in vivo, Alopecurus myosuroides
Method in brief: as §1

[10] = test system: giant foxtail; test: Test B pre/postemergence giant foxtail; format: in vivo, Setaria faberii
Method in brief: as §1

[11] = test system: smallflower flatsedge; test: Test B flood test smallflower flatsedge; format: in vivo, Cyperus difformis
Method in brief: as §2

[12] = test system: wild oat; test: Test B pre/postemergence wild oat; format: in vivo, Avena fatua
Method in brief: as §1

[13] = test system: crabgrass; test: Test B pre/postemergence crabgrass; format: in vivo, Digitaria sanguinalis
Method in brief: as §1

[14] = test system: sugar beet; test: Test B pre/postemergence sugar beet; format: in vivo, Beta vulgaris
Method in brief: as §1

[15] = test system: purple nutsedge; test: Test B pre/postemergence purple nutsedge; format: in vivo, Cyperus rotundus
Method in brief: as §1

[16] = test system: cocklebur; test: Test B pre/postemergence cocklebur; format: in vivo, Xanthium strumarium
Method in brief: as §1

[17] = Preemergence, Rate 31 g/ha, visual rating, scale 0 to 10 (0 no effect, 10 complete control)
[18] = Preemergence, Rate 62 g/ha, scale of 0 to 10 where 0 is no effect and 10 is complete control
[19] = Preemergence, Rate 250 g/ha, scale of 0 to 10 where 0 is no effect and 10 is complete control
[20] = Rate 31 g/ha, Postemergence, scale 0 to 10
[21] = Rate 62 g/ha, Postemergence, scale 0 to 10, 0 no effect, 10 complete control
[22] = Rate 125 g/ha, Postemergence, scale of 0 to 10 where 0 is no effect and 10 is complete control
[23] = Rate 125 g/ha, Preemergence, scale of 0 to 10 where 0 is no effect and 10 is complete control
[24] = Rate 250 g/ha, Postemergence, scale of 0 to 10 where 0 is no effect and 10 is complete control
[25] = Rate 31 g/ha, Pre-emergence section (flood test species), scale 0 to 10
[26] = Rate 62 g/ha, headed Pre-emergence (flood test species), scale 0 to 10 (0 no effect, 10 complete control)
[27] = Rate 125 g/ha, Pre-emergence, flood test species, scale 0 to 10 where 0 is no effect and 10 is complete control
[28] = Rate 250 g/ha, Pre-emergence, flood-test species, scale 0 to 10, 0 is no effect, 10 is complete control

Question: With `CC(Cl)=CCn1c(=O)on(C(=O)N(c2ccc(F)cc2)C(C)C)c1=O` [Compound 285] as the molecule, how does the “Corn plant response rating” value [1, 17] read?
Answer: 0

Question: And the “Corn plant response rating” value [1, 18]?
Answer: 0

Question: And the “Corn plant response rating” value [1, 19]?
Answer: 0

Question: What about the “Corn plant response rating” value [1, 20] of the same molecule?
Answer: 0

Question: And the “Corn plant response rating” value [1, 21]?
Answer: 0

Question: What about the “Corn plant response rating” value [1, 22] of the same molecule?
Answer: 0

Question: What about the “Corn plant response rating” value [1, 23] of the same molecule?
Answer: 0

Question: What about the “Plant response rating, Corn” value [1, 24] of the same molecule?
Answer: 0

Question: And the “Soybean plant response rating” value [2, 17]?
Answer: 0

Question: What about the “Soybean plant response rating” value [2, 18] of the same molecule?
Answer: 0

Question: What about the “Soybean plant response rating” value [2, 19] of the same molecule?
Answer: 0

Question: And the “Soybean plant response rating” value [2, 21]?
Answer: 2

Question: What about the “Soybean plant response rating” value [2, 22] of the same molecule?
Answer: 2

Question: What about the “Soybean plant response rating” value [2, 23] of the same molecule?
Answer: 0

Question: What about the “Plant response rating, Soybean” value [2, 24] of the same molecule?
Answer: 3

Question: What about the “Wheat plant response rating” value [3, 17] of the same molecule?
Answer: 0

Question: What about the “Wheat plant response rating” value [3, 18] of the same molecule?
Answer: 0

Question: And the “Wheat plant response rating” value [3, 19]?
Answer: 0

Question: What about the “Wheat plant response rating” value [3, 21] of the same molecule?
Answer: 0

Question: What about the “Wheat plant response rating” value [3, 22] of the same molecule?
Answer: 0

Question: What about the “Wheat plant response rating” value [3, 23] of the same molecule?
Answer: 0

Question: And the “Plant response rating, Wheat” value [3, 24]?
Answer: 0

Question: What about the “Ducksalad plant response rating” value [4, 25] of the same molecule?
Answer: 0

Question: What about the “Ducksalad plant response rating” value [4, 26] of the same molecule?
Answer: 0

Question: What about the “Ducksalad plant response rating” value [4, 27] of the same molecule?
Answer: 0

Question: And the “Ducksalad plant response rating” value [4, 28]?
Answer: 0

Question: What about the “Rape plant response rating” value [5, 17] of the same molecule?
Answer: 0

Question: What about the “Rape plant response rating” value [5, 18] of the same molecule?
Answer: 0

Question: What about the “Rape plant response rating” value [5, 19] of the same molecule?
Answer: 3

Question: And the “Rape plant response rating” value [5, 20]?
Answer: 0

Question: What about the “Rape plant response rating” value [5, 21] of the same molecule?
Answer: 0

Question: What about the “Rape plant response rating” value [5, 22] of the same molecule?
Answer: 0

Question: What about the “Rape plant response rating” value [5, 23] of the same molecule?
Answer: 0

Question: What about the “Plant response rating, Rape” value [5, 24] of the same molecule?
Answer: 0

Question: And the “Morningglory plant response rating” value [6, 17]?
Answer: 0

Question: What about the “Morningglory plant response rating” value [6, 18] of the same molecule?
Answer: 0

Question: What about the “Morningglory plant response rating” value [6, 19] of the same molecule?
Answer: 0

Question: And the “Morningglory plant response rating” value [6, 20]?
Answer: 1

Question: What about the “Morningglory plant response rating” value [6, 21] of the same molecule?
Answer: 3

Question: And the “Morningglory plant response rating” value [6, 22]?
Answer: 5

Question: What about the “Morningglory plant response rating” value [6, 23] of the same molecule?
Answer: 0

Question: And the “Plant response rating, Morningglory” value [6, 24]?
Answer: 5

Question: And the “Velvetleaf plant response rating” value [7, 17]?
Answer: 0

Question: And the “Velvetleaf plant response rating” value [7, 18]?
Answer: 0

Question: And the “Velvetleaf plant response rating” value [7, 19]?
Answer: 3

Question: And the “Velvetleaf plant response rating” value [7, 21]?
Answer: 0

Question: And the “Velvetleaf plant response rating” value [7, 22]?
Answer: 0

Question: What about the “Velvetleaf plant response rating” value [7, 23] of the same molecule?
Answer: 2

Question: What about the “Plant response rating, Velvetleaf” value [7, 24] of the same molecule?
Answer: 1

Question: And the “B. signalgrass plant response rating” value [8, 17]?
Answer: 0

Question: What about the “B. signalgrass plant response rating” value [8, 18] of the same molecule?
Answer: 2

Question: What about the “B. signalgrass plant response rating” value [8, 19] of the same molecule?
Answer: 10

Question: And the “B. signalgrass plant response rating” value [8, 20]?
Answer: 0

Question: And the “B. signalgrass plant response rating” value [8, 21]?
Answer: 0

Question: What about the “B. signalgrass plant response rating” value [8, 22] of the same molecule?
Answer: 0

Question: What about the “B. signalgrass plant response rating” value [8, 23] of the same molecule?
Answer: 5

Question: What about the “Plant response rating, B. signalgrass” value [8, 24] of the same molecule?
Answer: 0

Question: And the “Blackgrass plant response rating” value [9, 17]?
Answer: 0

Question: What about the “Blackgrass plant response rating” value [9, 18] of the same molecule?
Answer: 0

Question: What about the “Blackgrass plant response rating” value [9, 19] of the same molecule?
Answer: 5

Question: What about the “Blackgrass plant response rating” value [9, 20] of the same molecule?
Answer: 0

Question: What about the “Blackgrass plant response rating” value [9, 21] of the same molecule?
Answer: 0

Question: What about the “Blackgrass plant response rating” value [9, 22] of the same molecule?
Answer: 2

Question: And the “Blackgrass plant response rating” value [9, 23]?
Answer: 4

Question: And the “Plant response rating, Blackgrass” value [9, 24]?
Answer: 7

Question: And the “Giant foxtail plant response rating” value [10, 17]?
Answer: 7

Question: What about the “Giant foxtail plant response rating” value [10, 18] of the same molecule?
Answer: 8

Question: And the “Giant foxtail plant response rating” value [10, 19]?
Answer: 10

Question: And the “Giant foxtail plant response rating” value [10, 20]?
Answer: 0

Question: What about the “Giant foxtail plant response rating” value [10, 21] of the same molecule?
Answer: 0

Question: And the “Giant foxtail plant response rating” value [10, 22]?
Answer: 0

Question: And the “Giant foxtail plant response rating” value [10, 23]?
Answer: 9

Question: What about the “Plant response rating, Giant foxtail” value [10, 24] of the same molecule?
Answer: 0

Question: What about the “S. Flatsedge plant response rating” value [11, 25] of the same molecule?
Answer: 0

Question: What about the “S. Flatsedge plant response rating” value [11, 26] of the same molecule?
Answer: 0

Question: What about the “S. Flatsedge plant response rating” value [11, 27] of the same molecule?
Answer: 0

Question: What about the “S. Flatsedge plant response rating” value [11, 28] of the same molecule?
Answer: 0

Question: What about the “Wild oats plant response rating” value [12, 17] of the same molecule?
Answer: 0

Question: And the “Wild oats plant response rating” value [12, 18]?
Answer: 0

Question: And the “Wild oats plant response rating” value [12, 19]?
Answer: 3

Question: And the “Wild oats plant response rating” value [12, 21]?
Answer: 0

Question: What about the “Wild oats plant response rating” value [12, 22] of the same molecule?
Answer: 0

Question: And the “Plant response rating, Wild oats” value [12, 24]?
Answer: 0

Question: What about the “Crabgrass plant response rating” value [13, 17] of the same molecule?
Answer: 0

Question: And the “Crabgrass plant response rating” value [13, 18]?
Answer: 4

Question: And the “Crabgrass plant response rating” value [13, 19]?
Answer: 8

Question: And the “Crabgrass plant response rating” value [13, 20]?
Answer: 0

Question: What about the “Crabgrass plant response rating” value [13, 21] of the same molecule?
Answer: 0

Question: And the “Crabgrass plant response rating” value [13, 22]?
Answer: 3

Question: And the “Crabgrass plant response rating” value [13, 23]?
Answer: 8

Question: And the “Plant response rating, Crabgrass” value [13, 24]?
Answer: 7

Question: What about the “Sugarbeets plant response rating” value [14, 17] of the same molecule?
Answer: 0

Question: What about the “Sugarbeets plant response rating” value [14, 18] of the same molecule?
Answer: 0

Question: What about the “Sugarbeets plant response rating” value [14, 19] of the same molecule?
Answer: 0

Question: What about the “Sugarbeets plant response rating” value [14, 21] of the same molecule?
Answer: 0

Question: And the “Sugarbeets plant response rating” value [14, 22]?
Answer: 2

Question: And the “Sugarbeets plant response rating” value [14, 23]?
Answer: 0

Question: And the “Plant response rating, Sugarbeets” value [14, 24]?
Answer: 3

Question: And the “Nutsedge plant response rating” value [15, 17]?
Answer: 0

Question: What about the “Nutsedge plant response rating” value [15, 18] of the same molecule?
Answer: 0

Question: What about the “Nutsedge plant response rating” value [15, 19] of the same molecule?
Answer: 0

Question: What about the “Nutsedge plant response rating” value [15, 20] of the same molecule?
Answer: 0

Question: And the “Nutsedge plant response rating” value [15, 21]?
Answer: 0

Question: What about the “Nutsedge plant response rating” value [15, 22] of the same molecule?
Answer: 0

Question: What about the “Nutsedge plant response rating” value [15, 23] of the same molecule?
Answer: 0

Question: And the “Plant response rating, Nutsedge” value [15, 24]?
Answer: 0

Question: And the “Cocklebur plant response rating” value [16, 17]?
Answer: 0

Question: What about the “Cocklebur plant response rating” value [16, 18] of the same molecule?
Answer: 0

Question: What about the “Cocklebur plant response rating” value [16, 19] of the same molecule?
Answer: 0

Question: And the “Cocklebur plant response rating” value [16, 20]?
Answer: 0

Question: What about the “Cocklebur plant response rating” value [16, 21] of the same molecule?
Answer: 0

Question: What about the “Cocklebur plant response rating” value [16, 22] of the same molecule?
Answer: 0

Question: What about the “Cocklebur plant response rating” value [16, 23] of the same molecule?
Answer: 0

Question: And the “Plant response rating, Cocklebur” value [16, 24]?
Answer: 0
